Where “and” joins values, the source holds several entries; their conditions need not be identical. Identical values can stand only once. Entries after “also recorded” stand apart in the source; their conditions may differ.

The test system of data set [1] is erythrocyte count, WBC count, PLT and Hb. Briefly: Haematological indicators (peripheral blood cells) after intravenous BBR. To be noted: rats, i.v. 2.5 mg/kg, 5, 30 and 120 min, vs control group, n = 8. Format: in vivo, SD rats. The protocol: After 48 SD rats were fed adaptively for a week, they were randomly divided into the control group and i.v. group (24 rats per group). Then they were further divided into 5, 30, and 120 min subgroups (n = 8). The SD rats in the i.v. group were intravenously administrated with 2.5 mg/kg BBR, while the control group was intravenously administrated with 1 mL 0.9% physiological saline solution. The blood samples were collected from the retroorbital sinus to K2EDTA-coated tubes, and used for the evaluation of haematological indicators including erythrocyte count, white blood cell (WBC) count, platelet count (PLT) and Hb.

Another data set deals with 2% erythrocytes. Briefly: Hemolysis rate. Format: cell-based, rats. Particulars: 37 °C, 2 h. How it is done: (§1) The whole blood was collected from rats by orbital plexus vein and transferred into a blood-collection tube containing ethylene diamine tetraacetic acid (EDTA) as an anticoagulant. The whole blood was centrifuged at 3000 rpm for 10 min. The plasma and the buffy coat in the supernatant were removed by aspiration, and erythrocytes were washed three times in cold phosphate buffer saline (PBS) and centrifuged for 10 min at 3000 rpm, and then resuspended in an appropriate volume of PBS.
(§2) The hematocrite of washed erythrocytes was adjusted by PBS to 2%. In 5-mL Eppendorf tubes, 1 mL of 2% erythrocytes was incubated with 1 mL of different concentrations of BBR hydrochloride at 37 °C for 2 h. The final concentrations of BBR hydrochloride in reaction system were 0.125, 0.250, 0.500, 1.000, 1.333, 1.500, 1.600 mg/mL, respectively. One mL of 2% erythrocytes incubated with 1 mL saline solution served as the […] group while 1 mL 2% erythrocytes incubated with 1 mL distilled water served as the […] one. After incubation, the erythrocytes suspension was centrifuged at 3000 rpm for 10 min. Then 150 μL supernatant was added to the 96-well plate. Three parallel wells were set for each group, and the absorbance at 545 nm of each sample well was measured by a microplate reader. The imaging system was employed to observe whether BBR induced hemolysis. The hemolysis rate was calculated according to the following formula: Hemolysis rate (%) = [(ODsample−ODnegative)/(ODpositive −ODnegative)] ×100%

Another data set can be described thus: Hemolysis rate. Particulars: rat, washed rat erythrocytes, 2% hematocrit suspension, 2% erythrocytes, 37 °C. Format: cell-based, rats. How it is done:
as §1, §2

The nature of data set [2]: Erythrocytes/plasma partition coefficient of BBR in vivo. The arrangement: species or system SD rats. Particulars: for Ce (drug concentration in erythrocytes) / Ce/p (erythrocytes/plasma partition coefficient) / Cp (drug concentration in plasma): individual rats no. 1-6. How it is done:
After six SD rats were intravenously administrated with BBR, blood samples were obtained from posterior orbital venous plexus to a heparinized tube at 5, 30, and 120 min, respectively, and then centrifuged at 2500 rpm for 10 min. After centrifugation, the upper layer (plasma) was collected, while the lower layer (blood cells) was washed three times with physiological saline and centrifuged for 5 min at 3000 rpm, and then resuspended in an appropriate volume of physiological saline, which was obtained as erythrocytes to perform the following procedure:
Piperine was added into the obtained plasma as the internal standard substance and then the samples were mixed with acetonitrile to precipitate protein. The mixtures were centrifuged at 8000 rpm for 10 min. The supernatants were collected and dried. The eluates were concentrated and re-dissolved for analysis.
The obtained erythrocytes were mixed with piperine and HC, and placed in a water bath at 60 °C for 6 h and then centrifuged at 12,000 rpm for 10 min. The supernatant was obtained and injected through a solid-phase extraction to separate drugs and impurities. The filtrate was collected, dried, and then re-dissolved with 200 μL acetonitrile for HPLC analysis (Chen et al., [2021]).

Details of data set [3]: method as in Liu et al., 2010; Chen et al., 2011. To be noted: ref Liu et al., 2010; Chen et al., 2011; cited from earlier work.
The conditions of data set [4]: cited from earlier work.
The next data set addresses T1, bovine hemoglobin (BHB) (Bos taurus, UniProt P01966+P02070).
T1 construct: purchased Sigma Aldrich
Briefly: Circular dichroism of BHB-BBR systems. Format: binding. Particulars: CD, BHB:BBR molar ratios up to 1:8, reduced from 36.87% for BHB alone, pH 7.4, 298 K. How it is done:
In addition, CD spectra were collected from 200 to 260 nm with three scans averaged for each CD spectrum. The molar ratio (1:1) of BHB: BBR was used for the measurement. Briefly, BHB and BBR were dissolved in Tris-HCl (pH 7.4), and the solutions were freeze-dried into powder. Raman spectra were measured from 2600 to 400 cm^−1 using the Nd-YAG laser (1064 nm). Due to the existence of inner filter effects, the fluorescence parameter was corrected using the equation: F=F0×10^(AEX+AEM/2) where F and F0 are the fluorescence intensity corrected and observed, respectively; AEX and AEM are the sums of the absorbance of samples at excitation and emission wavelengths (Chen et al., [2021]).
In this work, the molar ratios of 1:0, 1:2, 1:4 and 1:8 for BHB: BBR were utilized for the CD records. […] Besides, the helix of α chain can be calculated following the below equation: α−Helix(%)=−MRE208−4000/33000−4000×100 where MRE208 is the observed MRE value at 208 nm, 4000 is the MRE value of β-form and random coil conformation cross at 208 nm, and 33,000 is the MRE value of pure α-helix at 208 nm (Shobini et al., [2001]).

T1 sequence (P01966 2-142 limits assumed): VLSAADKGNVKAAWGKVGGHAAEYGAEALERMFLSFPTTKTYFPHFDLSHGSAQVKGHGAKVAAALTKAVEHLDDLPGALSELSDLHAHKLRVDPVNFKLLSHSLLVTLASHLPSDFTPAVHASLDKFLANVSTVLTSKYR
T1 sequence (P02070 whole entry): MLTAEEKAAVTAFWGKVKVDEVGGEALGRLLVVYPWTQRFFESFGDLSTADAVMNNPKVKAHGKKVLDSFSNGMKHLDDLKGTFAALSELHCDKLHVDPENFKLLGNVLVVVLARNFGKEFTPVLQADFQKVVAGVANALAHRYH

For the compound `COc1ccc2cc3[n+](cc2c1OC)CCc1cc2c(cc1-3)OCO2` [BBR, Berberine], in data set [1], the Hb content result was “significantly decreased; also recorded: significantly reduced”, the erythrocytes count result was “significantly decreased; also recorded: significantly reduced”, the platelet count result is “did not fluctuate obviously; also recorded: no significant effects” and the white blood count entry is listed as “did not fluctuate obviously; also recorded: no significant effects”. In addition, the “hemolysis of the BBR-erythrocyte system” value with 2% erythrocytes (BBR 1.00 mg/mL) is “relatively stable without hemolysis”. Further, the “hemolysis of the erythrocyte” value with 2% erythrocytes (BBR concentration below 1.00 mg/mL) is “no hemolysis”. This compound displayed a hemolysis at 2 h, 1.5 mg/mL in “Hemolysis rate” (BBR 1.50 mg/mL) of 58.2%. Also, the hemolysis at 2 h, 1.6 mg/mL in the data set “Hemolysis rate” (BBR 1.60 mg/mL) amounted to 89.7%. Further, in data set [2] (5 min after 2.5 mg/kg), the “Ce (drug concentration in erythrocytes)” value is 1.313 µM and 0.039 µM and 0.000 µM and 0.375 µM and 0.862 µM and 0.584 µM; the “Ce/p (erythrocytes/plasma partition coefficient)” value was “∞ and 0.081 and 1.610 and 3.700 and 1.405”; the “Cp (drug concentration in plasma)” value was 0.000 µM and 0.489 µM and 0.233 µM and 0.416 µM. Moreover, in data set [2] (30 min after 2.5 mg/kg), the “Ce (drug concentration in erythrocytes)” value is 0.044 µM and 0.212 µM and 0.026 µM and 0.176 µM and 0.539 µM; the “Ce/p (erythrocytes/plasma partition coefficient)” value was “∞ and 0.090 and 0.897 and 0.875”; the “Cp (drug concentration in plasma)” value was 0.000 µM and 0.282 µM and 0.197 µM and 0.616 µM. In data set [2] (120 min after 2.5 mg/kg), the “Ce (drug concentration in erythrocytes)” value is 0.225 µM and 0.000 µM and 0.132 µM; the “Ce/p (erythrocytes/plasma partition coefficient)” value is listed as “∞”; the “Cp (drug concentration in plasma)” value is 0.000 µM and 1.243 µM. The Kp at 5 min in data set [2] (SD, rat, erythrocytes/plasma, iv, 2.5 mg/kg, 5 min after intravenous administration, rats, read-out: Ce/p value (group value)) is 1.67 ± 1.5. Further, the Kp at 30 min in data set [2] (SD, rat, erythrocytes/plasma, iv, 2.5 mg/kg, 30 min after intravenous administration, rats, read-out: Ce/p value (group value)) is 0.62 ± 0.6. For the same compound, in data set [3], the oral bioavailability result is “less than 1%”. Further, in data set [4] (background statement of the introduction, no reference given), the “concentration of BBR in the liver relative to plasma” value was “about 10 fold”. Further, the “average concentration of BBR in liver relative to plasma” value in data set [4] (ref Yan et al., 2009, Tan et al., 2013, Yu et al., 2017) is given as 10–30 times. For the same compound, at bovine hemoglobin (BHB), the “α-helicity of BHB after addition of BBR” value amounted to 33.53%.

The values are drawn from PMC8920379, “The discovery of berberine erythrocyte-hemoglobin self-assembly delivery system: a neglected carrier underlying its pharmacokinetics” (Drug Delivery, 2022).
